The target of one assay is T1, human GSK3α (Homo sapiens, UniProt P49840).
T1 construct: Full length human GSK3α or GSK3B expressed as N-terminal GST fusion proteins; GST (N); purchased Carna Biosciences (Japan); host or cells: baculovirus host
The assay can be described thus: In vitro enzymatic activity assay, GSK3α. It counts as biochemical. To be noted: 1.0 mM ATP, 1.0 μM peptide substrate, 120 min, 25° C.

The target of a further assay is T2, GSK3A (Homo sapiens, UniProt P49840).
T2 construct: expressed in transfected cells
T2 sequence (P49840 whole entry): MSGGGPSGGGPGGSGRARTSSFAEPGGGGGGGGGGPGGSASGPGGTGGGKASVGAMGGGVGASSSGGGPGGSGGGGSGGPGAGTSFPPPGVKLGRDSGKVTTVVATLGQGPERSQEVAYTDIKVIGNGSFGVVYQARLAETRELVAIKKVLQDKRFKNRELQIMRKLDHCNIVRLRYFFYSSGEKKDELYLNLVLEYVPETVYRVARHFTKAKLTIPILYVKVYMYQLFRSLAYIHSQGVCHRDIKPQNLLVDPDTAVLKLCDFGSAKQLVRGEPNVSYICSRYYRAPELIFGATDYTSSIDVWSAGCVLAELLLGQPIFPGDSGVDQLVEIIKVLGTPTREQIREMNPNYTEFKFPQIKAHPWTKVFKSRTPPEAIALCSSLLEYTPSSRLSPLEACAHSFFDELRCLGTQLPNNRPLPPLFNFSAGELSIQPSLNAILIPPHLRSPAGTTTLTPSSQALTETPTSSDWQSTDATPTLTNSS
The assay can be described thus: NanoBRET cellular target engagement assay, Nanoluc-GSK3A in HEK293 cells. It counts as cell-based. The following applies: NanoBRET GSK3α IC50, HEK293 cells, tracer K-8, 2 hours, 37° C.

Assay [1] has as its target T3, GSK3B (Homo sapiens, UniProt P49841). The assay can be described thus: NanoBRET cellular target engagement assay, Nanoluc-GSK3B in HEK293 cells. It counts as cell-based. Also noted: expressed in transfected cells. To be noted: NanoBRET GSK3β IC50, HEK293 cells, tracer K-8, 2 hours, 37° C. On the technique in general: Bioluminescence resonance energy transfer reports proximity on the nanometre scale.

In assay [2] the target is T3, GSK3B. The assay can be described thus: In vitro enzymatic activity assay, GSK3β. The following applies: 1.0 mM ATP, 1.0 μM peptide substrate, 120 min, 25° C. Set-up: Full length human GSK3α or GSK3B expressed as N-terminal GST fusion proteins; GST (N); purchased Carna Biosciences (Japan); host or cells: baculovirus host. It counts as biochemical.

Where a name gives a salt, the structure may show the parent alone. Read-outs that look alike come from different tables or passages of the source.

T1 sequence (P49840 whole entry, the tested form may be a part): as the sequence (P49840 whole entry) above
T3 sequence (P49841 whole entry): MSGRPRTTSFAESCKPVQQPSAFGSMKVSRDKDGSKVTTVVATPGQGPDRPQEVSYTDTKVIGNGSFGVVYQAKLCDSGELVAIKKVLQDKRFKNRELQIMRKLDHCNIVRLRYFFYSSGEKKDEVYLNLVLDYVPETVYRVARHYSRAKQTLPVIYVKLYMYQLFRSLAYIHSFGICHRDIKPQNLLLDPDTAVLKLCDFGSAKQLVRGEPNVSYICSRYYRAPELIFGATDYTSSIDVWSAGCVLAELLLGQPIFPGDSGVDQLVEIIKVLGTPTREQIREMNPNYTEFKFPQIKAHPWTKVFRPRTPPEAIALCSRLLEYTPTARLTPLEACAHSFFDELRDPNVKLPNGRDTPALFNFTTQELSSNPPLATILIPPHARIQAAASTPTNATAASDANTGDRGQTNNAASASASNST

The term IC50 denotes the concentration that gives 50% inhibition. `COc1c(NC(=O)c2c(N)ncn(-c3c(Cl)cccc3Cl)c2=O)cccc1C1CCCN1` (single isomer, unassigned) [Example 169, (R)-4-amino-1-(2,6-dichlorophenyl)-N-(2-methoxy-3-(pyrrolidin-2-yl)phenyl)-6-oxo-1,6-dihydropyrimidine-5-carboxamide or (S)-4-amino-1-(2,6-dichlorophenyl)-N-(2-methoxy-3-(pyrrolidin-2-yl)phenyl)-6-oxo-1,6-dihydropyrimidine-5-carboxamide]: the IC50 at human GSK3α (read-out: Enzyme GSK3α (IC50)) was determined as 4.2 nM; against GSK3A it was 2 nM; on GSK3B [1], 103 nM; at GSK3B [2] (read-out: Enzyme GSK3β (IC50)) it was 105 nM.
On the same counts, the results for `COCC[C@@H](N)c1cncc(NC(=O)c2c(N)ncn(-c3c(Cl)cccc3Cl)c2=O)c1` (single isomer, unassigned) [Example 197, (R)-4-amino-N-(5-(1-amino-3-methoxypropyl)pyridin-3-yl)-1-(2,6-dichlorophenyl)-6-oxo-1,6-dihydropyrimidine-5-carboxamide or (S)-4-amino-N-(5-(1-amino-3-methoxypropyl)pyridin-3-yl)-1-(2,6-dichlorophenyl)-6-oxo-1,6-dihydropyrimidine-5-carboxamide] are 15 nM, 7.2 nM, 403 nM and 850 nM.
Regarding `CCc1cc(C)c(-n2cnc(N)c(C(=O)Nc3cncc(C4CCCCCN4)c3)c2=O)c(C)c1` (single isomer, unassigned) [Example 148, (R)-4-amino-N-(5-(azepan-2-yl)pyridin-3-yl)-1-(4-ethyl-2,6-dimethylphenyl)-6-oxo-1,6-dihydropyrimidine-5-carboxamide or (S)-4-amino-N-(5-(azepan-2-yl)pyridin-3-yl)-1-(4-ethyl-2,6-dimethylphenyl)-6-oxo-1,6-dihydropyrimidine-5-carboxamide], the IC50 at human GSK3α (read-out: Enzyme GSK3α (IC50)) was found to be 7.2 nM; against GSK3A, 4.3 nM; against GSK3B [1], 349 nM; at GSK3B [2] (read-out: Enzyme GSK3β (IC50)) it was 317 nM.
In the same order, the values of `COc1cc(Cl)c(-n2cnc(N)c(C(=O)Nc3cncc(C4CCC(C)N4)c3)c2=O)c(Cl)c1` (single isomer, unassigned) [Example 79] are 4.3 nM, 2.4 nM, 170 nM and 317 nM.
Consider `COc1cc(Cl)c(-n2cnc(N)c(C(=O)Nc3cncc([C@@H]4C[C@@H](C)N4)c3)c2=O)c(Cl)c1` (single isomer, unassigned) [Example 214, 4-amino-1-(2,6-dichloro-4-methoxyphenyl)-N-(5-((2S,4R)-4-methylazetidin-2-yl)pyridin-3-yl)-6-oxo-1,6-dihydropyrimidine-5-carboxamide formate or 4-amino-1-(2,6-dichloro-4-methoxyphenyl)-N-(5-((2R,4S)-4-methylazetidin-2-yl)pyridin-3-yl)-6-oxo-1,6-dihydropyrimidine-5-carboxamide formate], for which the half-inhibitory concentration (IC50) at human GSK3α (read-out: Enzyme GSK3α (IC50)) turned out to be 17.3 nM; against GSK3A it was 8.9 nM; at GSK3B [1], 640 nM; on GSK3B [2] (read-out: Enzyme GSK3β (IC50)), 930 nM.
On the same counts, the results for `Nc1ncn(-c2c(Cl)cc(C(F)F)cc2Cl)c(=O)c1C(=O)Nc1cncc([C@@H]2CCCCN2)c1` [Example 56, (S)-4-amino-1-(2,6-dichloro-4-(difluoromethyl)phenyl)-6-oxo-N-(5-(piperidin-2-yl)pyridin-3-yl)-1,6-dihydropyrimidine-5-carboxamide] are 5.7 nM, 4.8 nM, 273 nM and 323 nM.
In the case of `Nc1ncn(-c2c(Cl)cc(OC(F)F)cc2Cl)c(=O)c1C(=O)Nc1cccc([C@@H]2CCCN2)c1` [Example 193, (S)-4-amino-1-(2,6-dichloro-4-(difluoromethoxy)phenyl)-6-oxo-N-(3-(pyrrolidin-2-yl)phenyl)-1,6-dihydropyrimidine-5-carboxamide], the IC50 at human GSK3α (read-out: Enzyme GSK3α (IC50)) was found to be 9.2 nM; against GSK3A, 6.8 nM; at GSK3B [1] it was 487 nM; at GSK3B [2] (read-out: Enzyme GSK3β (IC50)), 481 nM.
In the same order, the values of `COc1cc(Cl)c(-n2cnc(N)c(C(=O)Nc3cncc([C@@H]4CCN4)c3)c2=O)c(Cl)c1` (single isomer, unassigned) [Example 213, (S)-4-amino-N-(5-(azetidin-2-yl)pyridin-3-yl)-1-(2,6-dichloro-4-methoxyphenyl)-6-oxo-1,6-dihydropyrimidine-5-carboxamide or (R)-4-amino-N-(5-(azetidin-2-yl)pyridin-3-yl)-1-(2,6-dichloro-4-methoxyphenyl)-6-oxo-1,6-dihydropyrimidine-5-carboxamide] are 33.2 nM, 7.8 nM, 992 nM and 1760 nM.
Regarding `CCCOc1cc(C)c(-n2cnc(N)c(C(=O)Nc3cncc([C@H]4CCCCN4)c3)c2=O)c(C)c1` [Example 125, (R)-4-amino-1-(2,6-dimethyl-4-propoxyphenyl)-6-oxo-N-(5-(piperidin-2-yl)pyridin-3-yl)-1,6-dihydropyrimidine-5-carboxamide], the IC50 on human GSK3α (read-out: Enzyme GSK3α (IC50)) is 4.9 nM; at GSK3A, 2.7 nM; at GSK3B [1] it was 163 nM; on GSK3B [2] (read-out: Enzyme GSK3β (IC50)), 296 nM.
On the same counts, the results for `CCC[C@@H](N)c1cncc(NC(=O)c2c(N)ncn(-c3c(C)cc(C(F)F)cc3C)c2=O)c1` [Example 106, (R)-4-amino-N-(5-(1-aminobutyl)pyridin-3-yl)-1-(4-(difluoromethyl)-2,6-dimethylphenyl)-6-oxo-1,6-dihydropyrimidine-5-carboxamide] are 4.5 nM, 2.8 nM, 195 nM and 279 nM.
In the case of `Nc1ncn(-c2c(Cl)cncc2Cl)c(=O)c1C(=O)Nc1cncc([C@H]2CCCCN2)c1` [Example 152, (R)-4-amino-1-(3,5-dichloropyridin-4-yl)-6-oxo-N-(5-(piperidin-2-yl)pyridin-3-yl)-1,6-dihydropyrimidine-5-carboxamide], the 50% inhibitory concentration (IC50) on human GSK3α (read-out: Enzyme GSK3α (IC50)) amounted to 2.7 nM; at GSK3A, 2.4 nM; at GSK3B [1] it was 174 nM; on GSK3B [2] (read-out: Enzyme GSK3β (IC50)), 120 nM.
On the same counts, the results for `Nc1ncn(-c2c(Cl)cc(C(F)F)cc2Cl)c(=O)c1C(=O)Nc1cncc([C@@H]2COCCCN2)c1` (single isomer, unassigned) [Example 59, (R)-N-(5-(1,4-oxazepan-3-yl)pyridin-3-yl)-4-amino-1-(2,6-dichloro-4-(difluoromethyl)phenyl)-6-oxo-1,6-dihydropyrimidine-5-carboxamide or (S)-N-(5-(1,4-oxazepan-3-yl)pyridin-3-yl)-4-amino-1-(2,6-dichloro-4-(difluoromethyl)phenyl)-6-oxo-1,6-dihydropyrimidine-5-carboxamide] are 3.1 nM, 2.5 nM, 187 nM and 224 nM.
`Cc1cc(CCF)cc(C)c1-n1cnc(N)c(C(=O)Nc2cncc(C(C)N)c2)c1=O` (single isomer, unassigned) [Example 155, (R)-4-amino-N-(5-(1-aminoethyl)pyridin-3-yl)-1-(4-(2-fluoroethyl)-2,6-dimethylphenyl)-6-oxo-1,6-dihydropyrimidine-5-carboxamide or (S)-4-amino-N-(5-(1-aminoethyl)pyridin-3-yl)-1-(4-(2-fluoroethyl)-2,6-dimethylphenyl)-6-oxo-1,6-dihydropyrimidine-5-carboxamide]: the 50% inhibitory concentration (IC50) was found to be 9.9 nM at human GSK3α (read-out: Enzyme GSK3α (IC50)), 3.7 nM at GSK3A, 279 nM against GSK3B [1] and 374 nM at GSK3B [2] (read-out: Enzyme GSK3β (IC50)).
For the compound `CCOc1cc(C)c(-n2cnc(N)c(C(=O)Nc3cnnc(C(N)=O)c3)c2=O)c(C)c1` [Example 29, 5-(4-amino-1-(4-ethoxy-2,6-dimethylphenyl)-6-oxo-1,6-dihydropyrimidine-5-carboxamido)pyridazine-3-carboxamide], the IC50 at human GSK3α (Enzyme GSK3α (IC50)) is 92.2 nM; on GSK3A it was 79.2 nM; on GSK3B [1] it was 25000 nM; against GSK3B [2] (Enzyme GSK3β (IC50)), 3800 nM.
With `COc1cc(Cl)c(-n2cnc(N)c(C(=O)Nc3cncc(C4(N)CCC4)c3)c2=O)c(Cl)c1` [Example 179, 4-amino-N-(5-(1-aminocyclobutyl)pyridin-3-yl)-1-(2,6-dichloro-4-methoxyphenyl)-6-oxo-1,6-dihydropyrimidine-5-carboxamide], the concentration for half-maximal inhibition (IC50) at human GSK3α (read-out: Enzyme GSK3α (IC50)) turned out to be 3.7 nM; against GSK3A it was 3.3 nM; against GSK3B [1] it was 179 nM; at GSK3B [2] (read-out: Enzyme GSK3β (IC50)), 257 nM.
Turning to `Cc1cc(C(F)(F)F)cc(C)c1-n1cnc(N)c(C(=O)Nc2cncc(C3CCCCCN3)c2)c1=O` (single isomer, unassigned) [Example 89, (R)-4-amino-N-(5-(azepan-2-yl)pyridin-3-yl)-1-(2,6-dimethyl-4-(trifluoromethyl)phenyl)-6-oxo-1,6-dihydropyrimidine-5-carboxamide or (S)-4-amino-N-(5-(azepan-2-yl)pyridin-3-yl)-1-(2,6-dimethyl-4-(trifluoromethyl)phenyl)-6-oxo-1,6-dihydropyrimidine-5-carboxamide], the IC50 was 10.2 nM at human GSK3α (read-out: Enzyme GSK3α (IC50)), 6.4 nM against GSK3A, 485 nM at GSK3B [1] and 669 nM at GSK3B [2] (read-out: Enzyme GSK3β (IC50)).

These data come from US20260327191A1, “GSK3a INHIBITORS AND METHODS OF USE THEREOF” (Blueprint Medicines Corporation, priority 2023, published 2026).
